Data from ChEMBL document CHEMBL1201862, “PubChem BioAssay data set” (2004).
Active and inactive are the calls of the source.

Columns and labels:
Estrogen receptor beta = Estrogen receptor beta (Homo sapiens, UniProt Q92731);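 note: recombinant ER-beta bound to coactivator SRC1 peptide in presence of estradiol agonist; inhibitors block coactivator peptide binding and lower the FRET signal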
[1] = non-specific 3'UTR reporter inhibition in Clone20-Shn3RL – cell-based, Renilla luciferase, cherry-picked, counter-screen for Shn3 inhibitor project, dose response (AID 624133); type: functional
[2] = target: Glucose-6-phosphate 1-dehydrogenase (Homo sapiens, UniProt P11413); experiment: inhibition of Homo sapiens G6PD, dose series – biochemical, fluorescence, selectivity assay for P. falciparum G6PD inhibitor project, dose response (AID 504792); type: functional
Chain of Glucose-6-phosphate 1-dehydrogenase (P11413 whole entry): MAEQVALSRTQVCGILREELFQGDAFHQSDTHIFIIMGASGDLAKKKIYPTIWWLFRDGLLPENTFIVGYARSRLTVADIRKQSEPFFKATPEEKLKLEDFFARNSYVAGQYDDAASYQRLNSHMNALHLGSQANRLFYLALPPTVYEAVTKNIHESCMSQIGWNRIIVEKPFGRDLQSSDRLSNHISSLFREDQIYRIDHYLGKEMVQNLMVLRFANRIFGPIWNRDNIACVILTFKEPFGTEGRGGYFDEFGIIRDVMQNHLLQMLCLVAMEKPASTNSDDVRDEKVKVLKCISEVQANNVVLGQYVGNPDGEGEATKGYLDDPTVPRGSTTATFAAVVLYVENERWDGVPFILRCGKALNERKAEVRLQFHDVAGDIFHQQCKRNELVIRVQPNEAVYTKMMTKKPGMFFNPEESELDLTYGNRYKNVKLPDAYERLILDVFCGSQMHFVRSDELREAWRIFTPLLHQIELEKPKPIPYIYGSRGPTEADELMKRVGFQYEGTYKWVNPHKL

[3] = reduction of Shn3 3'UTR-driven luciferase in osteoblasts – cell-based, Clone20 osteoblasts, firefly luciferase, cherry-picked, dose response (AID 624132); type: functional;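 note: firefly luciferase luminescence from reporter carrying the Shn3 3'UTR in osteoblasts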
[4] = HIV-1 Vif–A3G interaction blockers – biochemical, TR-FRET, GST-Vif 1-94, biotin-A3G peptide, dose response retest, primary screen (AID 1117319); type: functional;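 note: TR-FRET signal of purified GST-Vif binding a biotinylated A3G peptide; inhibitors lower the FRET signal by blocking Vif and A3G binding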
[5] = target: T1, Rac GTPase-activating protein 1 (Homo sapiens, UniProt Q9H0H5); experiment: blockers of MgcRacGAP-driven Rac1 GTP hydrolysis – biochemical, ADP Hunter fluorescence, primary and confirmatory, confirmation (AID 624330); type: functional
T1 sequence (Q9H0H5 whole entry): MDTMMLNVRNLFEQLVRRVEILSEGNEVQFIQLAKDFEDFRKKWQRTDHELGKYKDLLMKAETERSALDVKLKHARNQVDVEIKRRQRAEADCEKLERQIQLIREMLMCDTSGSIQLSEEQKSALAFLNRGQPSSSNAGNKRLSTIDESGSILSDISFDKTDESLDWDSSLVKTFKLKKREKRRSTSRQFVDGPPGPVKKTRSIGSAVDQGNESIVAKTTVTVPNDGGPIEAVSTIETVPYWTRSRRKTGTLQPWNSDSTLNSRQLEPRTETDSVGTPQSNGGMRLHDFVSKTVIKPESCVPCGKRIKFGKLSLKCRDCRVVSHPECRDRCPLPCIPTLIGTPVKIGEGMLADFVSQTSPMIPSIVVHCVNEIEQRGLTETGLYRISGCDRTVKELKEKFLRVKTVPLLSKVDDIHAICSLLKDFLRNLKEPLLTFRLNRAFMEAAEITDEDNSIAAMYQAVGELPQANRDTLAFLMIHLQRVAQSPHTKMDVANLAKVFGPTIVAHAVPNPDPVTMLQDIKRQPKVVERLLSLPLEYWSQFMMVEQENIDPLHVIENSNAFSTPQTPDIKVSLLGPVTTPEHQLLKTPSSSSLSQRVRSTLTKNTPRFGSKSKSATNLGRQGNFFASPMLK

[6] = loss of viability in HepG2 cells – cell-based, CellTiter-Glo, cherry-picked, cytotoxicity control for Shn3 inhibitor project, dose response (AID 624134); type: functional
Beta Lactamase = Beta Lactamase (Pseudomonas aeruginosa, UniProt Q932Y6); experiment: BLA reporter interference, concentration series – BLA reporter cells, FRET fluorescence, artefact control for TLR9-MyD88 binding inhibitor project, dose response (AID 588341); type: cell-based;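 note: cell based assay in CHO-K1 cells stably expressing beta-lactamase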
Chain of Beta Lactamase (Q932Y6 whole entry, the tested form may be a part): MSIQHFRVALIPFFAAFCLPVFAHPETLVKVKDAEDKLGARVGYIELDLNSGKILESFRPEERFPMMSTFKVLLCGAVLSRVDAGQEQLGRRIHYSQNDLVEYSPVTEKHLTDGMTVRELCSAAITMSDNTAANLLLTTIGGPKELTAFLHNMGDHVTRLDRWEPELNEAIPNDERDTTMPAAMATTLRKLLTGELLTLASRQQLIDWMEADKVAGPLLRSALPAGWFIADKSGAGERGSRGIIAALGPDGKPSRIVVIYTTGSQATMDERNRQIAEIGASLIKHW

CHO = CHO cell viability loss, potency – luminescence, cytotoxicity control for TLR9-MyD88 binding inhibitor project, dose response (AID 588339); type: functional, cell-based, hamster; details: Cricetulus griseus;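 note: CHO cells stably coexpressing TLR9 and MyD88 fusions from primary screen; compound exposure lasted 48 hours before viability readout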
[7] = target: Eukaryotic translation initiation factor 4E (Mus musculus, UniProt P63073); experiment: blockers of eIF4G binding by eIF4E – biochemical, TR-FRET, dose response (AID 855); type: functional;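 note: potency for disrupting eIF4E binding to eIF4GI seen as loss of FRET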
Chain of Eukaryotic translation initiation factor 4E (P63073 whole entry): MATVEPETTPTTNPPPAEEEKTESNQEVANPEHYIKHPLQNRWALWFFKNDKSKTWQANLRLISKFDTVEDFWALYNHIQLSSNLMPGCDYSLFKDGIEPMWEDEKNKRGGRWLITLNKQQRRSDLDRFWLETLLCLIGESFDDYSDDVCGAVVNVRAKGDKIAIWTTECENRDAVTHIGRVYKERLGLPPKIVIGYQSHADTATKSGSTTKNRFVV

[8] = target: E3 ubiquitin-protein ligase Mdm2 (Homo sapiens, UniProt Q00987); experiment: MDM2-luc reporter signal enhancers, multi-concentration potency testing, MDM2 ubiquitin-protein ligase inhibitor program, whole-cell format, luminescence detection, 384-well microplate (AID 1394); type: functional;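 note: MDM2 E3 inhibitors raise luminescence so EC50 is for signal enhancement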
Chain of E3 ubiquitin-protein ligase Mdm2 (Q00987 whole entry, the tested form may be a part): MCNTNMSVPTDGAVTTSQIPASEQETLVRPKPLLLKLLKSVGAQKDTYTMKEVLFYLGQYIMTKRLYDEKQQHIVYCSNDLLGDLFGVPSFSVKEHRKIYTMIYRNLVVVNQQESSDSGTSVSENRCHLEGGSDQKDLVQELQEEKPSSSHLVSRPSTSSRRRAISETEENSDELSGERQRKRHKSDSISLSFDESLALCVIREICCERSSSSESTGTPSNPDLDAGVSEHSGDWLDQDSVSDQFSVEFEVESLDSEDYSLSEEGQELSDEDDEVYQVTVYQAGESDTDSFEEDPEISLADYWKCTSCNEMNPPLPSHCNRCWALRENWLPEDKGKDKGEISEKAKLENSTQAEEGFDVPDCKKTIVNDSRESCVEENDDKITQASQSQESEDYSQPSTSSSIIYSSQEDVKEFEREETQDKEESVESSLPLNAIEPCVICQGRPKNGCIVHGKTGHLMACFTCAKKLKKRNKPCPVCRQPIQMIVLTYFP

[9] = target: Oxysterols receptor LXR-beta (Homo sapiens, UniProt P55055); type: functional, cell-based;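 note: Cell-based luminescence dose-response assay of agonist activity at LXR, run as a confirmatory counterscreen to a daf-12 agonist screen; HEK293 cells with Gal4-LXR fusion and GAL4-driven luciferase reporter; agonist potency from rising luciferase signal of a Gal4-LXR reporter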
Chain of Oxysterols receptor LXR-beta (P55055 whole entry, the tested form may be a part): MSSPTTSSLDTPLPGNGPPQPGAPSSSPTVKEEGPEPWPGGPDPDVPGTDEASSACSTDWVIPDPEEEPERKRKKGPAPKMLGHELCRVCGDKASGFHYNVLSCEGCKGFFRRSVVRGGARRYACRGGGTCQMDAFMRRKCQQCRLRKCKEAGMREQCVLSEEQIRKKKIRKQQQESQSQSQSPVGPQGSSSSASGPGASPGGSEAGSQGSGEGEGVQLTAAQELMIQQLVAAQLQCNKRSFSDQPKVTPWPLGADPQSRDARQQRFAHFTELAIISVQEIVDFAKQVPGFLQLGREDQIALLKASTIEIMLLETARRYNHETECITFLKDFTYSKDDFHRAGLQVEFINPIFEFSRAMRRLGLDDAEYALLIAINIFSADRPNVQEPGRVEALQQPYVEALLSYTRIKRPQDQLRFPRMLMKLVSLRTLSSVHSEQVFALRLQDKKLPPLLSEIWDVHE

Melanocortin receptor 4 = Melanocortin receptor 4 (Homo sapiens, UniProt P32245); type: functional, cell-based;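 note: Cell-based assay with luminescence read-out, confirmatory dose-response testing for agonist activity of biased ligands at MC4R; human U2OS cells with tagged receptor and beta-arrestin; potency of agonists that increase receptor coupling to beta-arrestin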
Chain of Melanocortin receptor 4 (P32245 whole entry): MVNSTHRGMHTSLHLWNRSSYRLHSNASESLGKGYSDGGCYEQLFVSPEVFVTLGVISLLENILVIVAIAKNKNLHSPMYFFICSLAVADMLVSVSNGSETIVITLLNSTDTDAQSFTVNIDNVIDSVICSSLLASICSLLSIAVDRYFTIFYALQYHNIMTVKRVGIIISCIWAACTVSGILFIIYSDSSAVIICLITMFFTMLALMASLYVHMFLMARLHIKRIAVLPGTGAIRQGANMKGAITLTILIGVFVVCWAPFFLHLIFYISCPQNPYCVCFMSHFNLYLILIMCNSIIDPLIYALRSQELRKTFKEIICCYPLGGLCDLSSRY

cells [10] = experiment: cells
[11] = reduced cellular PGC1a acetyl-lysine signal – cell-based, cherry-picked samples, dose response (AID 720514); type: functional;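 note: potency may reflect raised or lowered acetylation signal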
[12] = viability loss in THP-1 monocytes – THP-1 cells, cytotoxicity control for Vif-APOBEC3G degradation inhibitor project, dose response (AID 1117359); type: functional; details: THP-1
CAAX prenyl protease 2 = target: T2, CAAX prenyl protease 2 (Saccharomyces cerevisiae S288c, UniProt Q03530); type: biochemical
T2 sequence (Q03530 whole entry): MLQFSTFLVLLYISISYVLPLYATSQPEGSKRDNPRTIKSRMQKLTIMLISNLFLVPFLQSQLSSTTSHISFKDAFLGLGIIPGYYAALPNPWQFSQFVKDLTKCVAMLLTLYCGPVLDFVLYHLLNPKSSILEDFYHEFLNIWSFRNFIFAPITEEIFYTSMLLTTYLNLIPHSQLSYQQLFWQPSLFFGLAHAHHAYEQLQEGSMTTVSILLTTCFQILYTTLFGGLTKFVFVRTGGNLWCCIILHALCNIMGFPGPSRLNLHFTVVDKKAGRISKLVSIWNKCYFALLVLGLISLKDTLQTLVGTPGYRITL

cells [13] = type: functional, cell-based; details: INS-1E
[14] = rise of 4N DNA cells, HeLa – IC50, dose response (AID 1117351); type: functional, cell-based
[15] = rise of 2N DNA cells, HeLa – IC50, dose response (AID 1117349); type: functional, cell-based
[16] = IC50 of insulin release inhibition, rat insulinoma INS-1E line, 5 mM glucose, cell-based (AID 1117331); type: functional

Chain of Estrogen receptor beta (Q92731 whole entry): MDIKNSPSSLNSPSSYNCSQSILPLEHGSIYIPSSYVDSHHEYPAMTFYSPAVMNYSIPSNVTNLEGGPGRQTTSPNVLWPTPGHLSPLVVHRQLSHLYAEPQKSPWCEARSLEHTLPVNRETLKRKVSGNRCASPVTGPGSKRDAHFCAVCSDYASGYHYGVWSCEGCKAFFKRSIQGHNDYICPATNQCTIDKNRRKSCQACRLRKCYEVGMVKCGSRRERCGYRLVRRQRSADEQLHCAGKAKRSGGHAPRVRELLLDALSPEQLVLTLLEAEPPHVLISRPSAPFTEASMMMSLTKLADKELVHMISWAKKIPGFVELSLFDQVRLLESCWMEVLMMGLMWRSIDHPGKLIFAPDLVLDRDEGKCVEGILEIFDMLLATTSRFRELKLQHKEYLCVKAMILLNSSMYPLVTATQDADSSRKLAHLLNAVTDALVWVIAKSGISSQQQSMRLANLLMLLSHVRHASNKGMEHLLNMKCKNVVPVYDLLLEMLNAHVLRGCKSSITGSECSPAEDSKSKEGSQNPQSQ

C[C@]12CCC(=O)C=C1CCC1C2CC[C@@]2(C)C1CC[C@@]2(O)CC#N (stereo partly specified)
IC50 (Estrogen receptor beta): > 50 µM (not active)

COc1cc(N2C(=O)C=CC2=O)ccc1N1C(=O)C=CC1=O
AC50 [1]: 12.5 µM (active) | IC50 [2]: 57.4 µM (inactive) | AC50 [3]: 2.32 µM (active) | IC50 [4]: > 100 µM (active) | IC50 [5]: 53.8 µM (active) | AC50 [6]: 15.8 µM (active) | IC50 (Beta Lactamase): 11 µM (inactive) | IC50 (CHO): 1.59 µM (active)

CCn1c(SCC(=O)NCc2ccc3c(c2)OCO3)nnc1-c1cccs1
IC50 [7]: > 64 µM (inactive) | IC50 [4]: > 100 µM (active)

Clc1ccccc1/C=N/NC1=Nc2cccc3cccc1c23
EC50 [8]: 10.6 µM (not active) | EC50 [9]: > 67.6 µM (inactive) | EC50 (Melanocortin receptor 4): > 89.3 µM (inactive) | EC50 (cells [10]): > 67.6 µM (inactive)

COc1ccc(-c2ccc([C@@H]3[C@@H]4CN(Cc5ccccn5)C[C@H]3N4)cc2)cc1
AC50 [11]: 28.7 µM (active)

COC(=O)C1CCCN1S(=O)(=O)c1ccc2ccccc2c1 (stereo unspecified)
CC50 [12]: > 40 µM (active) | AC50 (CAAX prenyl protease 2): 8.28 µM (active)

CSc1ccc2c(c1)C(N1CCN(C)CC1)Cc1ccccc1S2 (stereo unspecified) [METITEPINE]
IC50 (cells [13]): > 33.3 µM (inactive) | IC50 [14]: > 10 µM (inactive) | IC50 [15]: > 10 µM (inactive) | IC50 [16]: 2.94 µM (active)

CCCNCC(O)COc1ccccc1C(=O)CCc1ccccc1 (stereo unspecified) [PROPAFENONE]
IC50 (cells [13]): > 33.3 µM (inactive) | IC50 [14]: > 10 µM (inactive) | IC50 [15]: > 10 µM (inactive) | IC50 [16]: 4.92 µM (active)
